Activity calls are given as the source filed them. Unless noted, the rule behind the calls is not given here.
Key:
Candida albicans [1] = test: growth inhibition of azole-resistant C. albicans, dose response, CaCi-8 strain, Alamar Blue, dry powder, set 3 (AID 488905); assay type: functional, organism-based
Candida albicans [2] = test: reversal of fluconazole resistance in C. albicans, dose response, CaCi-2 strain, Alamar Blue, dry powder, set 3 (AID 488907); assay type: functional, organism-based
[3] = inhibitors of intracellular T. cruzi replication, confirmation, NIH3T3 host cells, beta-gal luminescence (AID 2044); assay type: functional, cell-based;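 also: intracellular parasites grown in NIH/3T3 mouse fibroblasts as host cells; luminescent beta-galactosidase reporter signal from transgenic T. cruzi replicating inside host cells; inhibitors lower the luminescence signal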
[4] = cytotoxicity toward NIH3T3 fibroblasts, dose response, counter-screen, cell-based, ATP luminescence, mouse fibroblasts (AID 2010); assay type: functional;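 also: cells exposed to compound for about 90 hours before reading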
[5] = biological target: T1, V-type proton ATPase subunit c' (Saccharomyces cerevisiae S288c, UniProt P32842); test: Dose Response of Small Molecules that Regulate V-ATPase Proton Transport in Yeast using pHLuorin, Cherry Pick 2.; assay type: functional; conditions: read-out: EC50_MICROM
T1 sequence (P32842 whole entry): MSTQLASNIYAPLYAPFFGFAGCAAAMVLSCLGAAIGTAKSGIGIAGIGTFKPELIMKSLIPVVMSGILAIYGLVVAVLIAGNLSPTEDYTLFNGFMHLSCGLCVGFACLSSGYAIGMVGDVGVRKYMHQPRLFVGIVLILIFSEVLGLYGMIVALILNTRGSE

[6] = biological target: T1, V-type proton ATPase subunit c'; test: Dose Response with BCECF Assay for V-ATPase inhibitors that increase vacuolar pH, Powder Set 1.; assay type: functional; conditions: read-out: EC50_MICROM
[7] = biological target: T1, V-type proton ATPase subunit c'; test: Dose Response of Small Molecules that Regulate V-ATPase Proton Transport in Yeast using pHLuorin, Powder Set1.; assay type: functional; conditions: read-out: EC50_MICROM
Caspase-3 = biological target: T2, Caspase-3 (Homo sapiens, UniProt P42574); test: caspase-3 inhibitors as off-family protease, SAR follow-up, selectivity assay for SENP protease inhibitor project, biochemical, luminescence, set 2 (AID 588599); assay type: functional
T2 sequence (P42574 whole entry): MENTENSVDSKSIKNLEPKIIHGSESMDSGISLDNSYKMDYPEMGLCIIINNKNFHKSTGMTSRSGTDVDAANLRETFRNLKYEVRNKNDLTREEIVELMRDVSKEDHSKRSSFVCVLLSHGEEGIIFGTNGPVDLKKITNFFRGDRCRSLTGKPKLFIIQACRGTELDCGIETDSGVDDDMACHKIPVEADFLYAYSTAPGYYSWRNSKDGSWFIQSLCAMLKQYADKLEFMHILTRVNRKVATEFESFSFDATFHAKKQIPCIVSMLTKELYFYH

[8] = biological target: T3, Sentrin-specific protease 8 (Homo sapiens, UniProt Q96LD8); test: SENP8 protease inhibitors, SAR follow-up, biochemical, luminescence, set 2 (AID 588601); assay type: functional
T3 sequence (Q96LD8 whole entry): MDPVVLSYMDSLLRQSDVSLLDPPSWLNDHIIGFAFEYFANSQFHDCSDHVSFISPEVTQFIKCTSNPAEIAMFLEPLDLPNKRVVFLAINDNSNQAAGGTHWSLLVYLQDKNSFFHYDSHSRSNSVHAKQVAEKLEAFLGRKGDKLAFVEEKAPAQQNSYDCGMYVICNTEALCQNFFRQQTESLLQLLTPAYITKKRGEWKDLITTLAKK

[9] = biological target: T4, Sentrin-specific protease 7 (Homo sapiens, UniProt Q9BQF6); test: SENP7 protease inhibitors, SAR follow-up, biochemical, luminescence, set 2 (AID 588600); assay type: functional
T4 sequence (Q9BQF6 whole entry): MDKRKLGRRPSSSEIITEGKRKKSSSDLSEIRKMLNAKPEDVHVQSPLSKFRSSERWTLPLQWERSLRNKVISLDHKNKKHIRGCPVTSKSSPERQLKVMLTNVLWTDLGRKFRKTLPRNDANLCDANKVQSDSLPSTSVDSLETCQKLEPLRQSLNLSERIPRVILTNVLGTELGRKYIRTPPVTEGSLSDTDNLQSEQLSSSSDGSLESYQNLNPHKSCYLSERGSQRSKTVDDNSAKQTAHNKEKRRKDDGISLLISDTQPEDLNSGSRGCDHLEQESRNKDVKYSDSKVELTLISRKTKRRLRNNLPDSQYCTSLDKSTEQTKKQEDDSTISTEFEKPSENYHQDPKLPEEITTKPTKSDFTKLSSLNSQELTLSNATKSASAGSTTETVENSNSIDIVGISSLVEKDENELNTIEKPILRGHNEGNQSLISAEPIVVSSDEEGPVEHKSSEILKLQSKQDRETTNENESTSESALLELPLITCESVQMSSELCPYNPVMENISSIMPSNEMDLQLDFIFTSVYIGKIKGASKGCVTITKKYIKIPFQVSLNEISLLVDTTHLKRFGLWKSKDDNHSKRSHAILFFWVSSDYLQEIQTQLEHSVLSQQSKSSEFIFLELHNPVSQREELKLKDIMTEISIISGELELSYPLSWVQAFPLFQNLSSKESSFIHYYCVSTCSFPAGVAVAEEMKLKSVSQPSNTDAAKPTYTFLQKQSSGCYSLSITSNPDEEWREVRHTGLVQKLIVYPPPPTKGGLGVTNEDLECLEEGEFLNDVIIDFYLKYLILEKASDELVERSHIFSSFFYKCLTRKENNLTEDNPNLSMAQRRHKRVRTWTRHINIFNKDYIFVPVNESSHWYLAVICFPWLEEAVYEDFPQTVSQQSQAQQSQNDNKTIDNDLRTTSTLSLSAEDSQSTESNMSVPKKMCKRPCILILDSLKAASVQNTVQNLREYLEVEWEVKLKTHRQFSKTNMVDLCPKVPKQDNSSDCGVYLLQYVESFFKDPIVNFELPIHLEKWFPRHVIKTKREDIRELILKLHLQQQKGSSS

[10] = biological target: T5, Sentrin-specific protease 6 (Homo sapiens, UniProt Q9GZR1); test: SENP6 protease inhibitors, SAR follow-up, biochemical, luminescence, set 2 (AID 588598); assay type: functional
T5 sequence (Q9GZR1 whole entry): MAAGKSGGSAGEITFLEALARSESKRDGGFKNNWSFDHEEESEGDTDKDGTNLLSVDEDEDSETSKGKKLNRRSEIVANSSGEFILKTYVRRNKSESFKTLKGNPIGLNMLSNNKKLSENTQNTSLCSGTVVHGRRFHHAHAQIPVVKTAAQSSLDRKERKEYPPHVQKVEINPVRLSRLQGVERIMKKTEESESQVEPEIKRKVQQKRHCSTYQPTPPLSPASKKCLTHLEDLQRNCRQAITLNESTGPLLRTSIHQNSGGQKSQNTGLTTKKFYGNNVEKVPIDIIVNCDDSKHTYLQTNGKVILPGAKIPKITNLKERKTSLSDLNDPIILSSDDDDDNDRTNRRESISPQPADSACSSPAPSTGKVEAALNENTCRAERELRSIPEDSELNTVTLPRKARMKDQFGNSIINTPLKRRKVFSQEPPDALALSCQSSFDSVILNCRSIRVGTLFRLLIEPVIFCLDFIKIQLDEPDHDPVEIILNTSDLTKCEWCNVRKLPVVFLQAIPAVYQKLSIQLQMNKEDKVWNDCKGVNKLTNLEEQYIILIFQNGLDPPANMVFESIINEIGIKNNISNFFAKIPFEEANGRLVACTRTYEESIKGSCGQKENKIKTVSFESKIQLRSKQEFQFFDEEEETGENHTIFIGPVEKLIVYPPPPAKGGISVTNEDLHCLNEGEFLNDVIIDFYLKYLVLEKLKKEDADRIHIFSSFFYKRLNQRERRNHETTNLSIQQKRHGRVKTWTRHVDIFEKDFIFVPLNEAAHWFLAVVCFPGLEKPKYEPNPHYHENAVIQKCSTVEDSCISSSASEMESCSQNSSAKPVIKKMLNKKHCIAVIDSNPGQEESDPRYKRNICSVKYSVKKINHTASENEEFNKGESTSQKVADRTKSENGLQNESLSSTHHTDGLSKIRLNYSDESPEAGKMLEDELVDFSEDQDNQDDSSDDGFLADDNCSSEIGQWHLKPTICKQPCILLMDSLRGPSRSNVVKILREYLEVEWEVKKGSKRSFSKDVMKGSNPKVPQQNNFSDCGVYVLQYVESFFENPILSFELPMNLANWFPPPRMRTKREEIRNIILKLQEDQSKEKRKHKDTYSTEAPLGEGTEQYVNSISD

HEK293 [11] = test: cytotoxicity in HEK293T NF-kB-Luc cells, SAR follow-up, cytotoxicity control for NF-kB activator project, cell-based, resazurin fluorescence (AID 493251); assay type: functional; conditions: Homo sapiens
Jurkat = test: SAR Analysis of small molecule inhibitors of both B-cell and T-cell specific antigen receptor-induced NF-kB activation in a Jurkat cell line using a luminescence assay. [Related pubchem assays (depositor defined):AID435003, AID435022, AID465, AID489029]; assay type: functional, cell-based; conditions: Homo sapiens
HEK293 [12] = test: SAR Analysis of small molecule inhibitors of both B-cell and T-cell specific antigen receptor-induced NF-kB activation in a HEK-293T cell line using a luminescence assay. [Related pubchem assays (depositor defined):AID435003, AID435022, AID465, AID489019, AID489029]; assay type: functional, cell-based; conditions: Homo sapiens

With `Cc1ccc(N2CCN(C(=O)c3ccc(Cl)cc3)CC2)nc1` the AC50 (Candida albicans [1]) was 25.4 µM (active) and the AC50 (Candida albicans [2]) was 0.413 µM (active).
With `O=C(c1ccc([N+](=O)[O-])o1)N1CCN(c2nc3c(F)cc(F)cc3s2)CC1` the EC50 [3] was 0.466 µM (active), the EC50 [4] was 22.4 µM (active) and the EC50 [5] was 8.9 µM (active). The EC50 [6] was 0.39 µM (active) and the EC50 [7] was 1.93 µM (active).
For `CN(C(=O)c1cccc(Br)c1)c1nc2ccccc2s1`, the IC50 (Caspase-3) was > 99 µM (inactive), the IC50 [8] was > 99 µM (inactive) and the IC50 [9] was > 99 µM (inactive). The IC50 [10] was > 99 µM (inactive).
For `COc1cc(NS(=O)(=O)c2ccccc2)c2ncccc2c1`, the IC50 (HEK293 [11]) was 59.5 µM (inactive), the IC50 (Jurkat) was 1.32 µM (active) and the IC50 (HEK293 [12]) was 70.7 µM (inactive).

Source: ChEMBL document CHEMBL1201862, “PubChem BioAssay data set” (2004)
